Assay results: PubChem BioAssay AID256 (DTP/NCI, 2004)
Values joined by “and” are separate entries in the source; they are usually repeats but may differ in a detail not shown here. Equal entries are not always repeated. Toxic doses and inconclusive results are not listed.

Tested on: CD2F1 mice, L1210 leukemia ip, survival T/C
Assay: NCI In Vivo Anticancer Drug Screen. Data for tumor model L1210 Leukemia (intraperitoneal) in CD2F1 (CDF1) mice
Settings: endpoint: mean survival time, higher = longer survival
In short: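 Antitumor effect is scored in animals hosting a serially transplanted tumor. Values compare compound-dosed animals against vehicle-only controls as a simple quotient.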

[1] = dose: 100.0 mg/kg/injection, schedule: Q04DX002 (ip), vehicle: saline
[2] = dose: 200.0 mg/kg/injection, schedule: Q04DX002 (ip), vehicle: saline
[3] = dose: 400.0 mg/kg/injection, schedule: Q04DX002 (ip), vehicle: saline
[4] = dose: 50.0 mg/kg/injection, schedule: Q01DX009 (ip), vehicle: saline with Tween-80
[5] = dose: 100.0 mg/kg/injection, schedule: Q01DX009 (ip), vehicle: saline with Tween-80
[6] = dose: 200.0 mg/kg/injection, schedule: Q01DX009 (ip), vehicle: saline with Tween-80
[7] = dose: 200.0 mg/kg/injection, schedule: Q04DX003 (ip), vehicle: saline with Tween-80
[8] = dose: 100.0 mg/kg/injection, schedule: Q01DX001 (ip), vehicle: saline with Tween-80
[9] = dose: 200.0 mg/kg/injection, schedule: Q01DX001 (ip), vehicle: saline with Tween-80
[10] = dose: 400.0 mg/kg/injection, schedule: Q01DX009 (ip), vehicle: saline with Tween-80
[11] = dose: 100.0 mg/kg/injection, schedule: Q04DX003 (ip), vehicle: saline with Tween-80
[12] = dose: 400.0 mg/kg/injection, schedule: Q04DX003 (ip), vehicle: saline with Tween-80

COC(=O)C1CCOC1=O (stereo unspecified)
T/C [1]: 98 % of control
T/C [2]: 98 % of control
T/C [3]: 102 % of control

C/C=C1\C[C@@H]2C(OC)Nc3cc(O)c(OC)cc3C(=O)N2C1 (stereo partly specified)
T/C (dose: 0.03 mg/kg/injection, schedule: Q01DX009 (ip), vehicle: saline): 103 % of control
T/C (dose: 0.03 mg/kg/injection, schedule: Q01DX009 (ip), vehicle: suspension in saline): 102 % of control
T/C (dose: 0.06 mg/kg/injection, schedule: Q01DX009 (ip), vehicle: saline): 104 % of control
T/C (dose: 0.06 mg/kg/injection, schedule: Q01DX009 (ip), vehicle: suspension in saline): 101 % of control
T/C (dose: 0.12 mg/kg/injection, schedule: Q01DX009 (ip), vehicle: saline): 109 % of control
T/C (dose: 0.12 mg/kg/injection, schedule: Q01DX009 (ip), vehicle: suspension in saline): 108 % of control
T/C (dose: 0.25 mg/kg/injection, schedule: Q01DX009 (ip), vehicle: saline): 106 % of control
T/C (dose: 0.25 mg/kg/injection, schedule: Q01DX009 (ip), vehicle: suspension in saline): 120 % of control
T/C (dose: 0.5 mg/kg/injection, schedule: Q01DX009 (ip), vehicle: saline): 118 % of control
T/C (dose: 0.5 mg/kg/injection, schedule: Q01DX009 (ip), vehicle: suspension in saline): 123 % of control
T/C (dose: 0.75 mg/kg/injection, schedule: Q04DX002 (ip), vehicle: saline): 106 % of control
T/C (dose: 1.0 mg/kg/injection, schedule: Q01DX009 (ip), vehicle: saline): 110 % of control
T/C (dose: 1.0 mg/kg/injection, schedule: Q01DX009 (ip), vehicle: suspension in saline): 92 % of control
T/C (dose: 1.5 mg/kg/injection, schedule: Q04DX002 (ip), vehicle: saline): 114 % of control

O=C1NC(=O)C(Cc2ccccc2)C(=O)N1
T/C [4]: 92 % of control
T/C [5]: 96 % of control
T/C [6]: 96 % of control

CCCCNC(=O)C1CC2c3c(Br)ccc4c3C(CC2N(C)C1)CN4C(C)=O (stereo unspecified)
T/C (dose: 50.0 mg/kg/injection, schedule: Q04DX003 (ip), vehicle: saline with Tween-80): 86 % of control
T/C [7]: 91 % of control

CC(=N)N(C)CC(=O)O
T/C [1]: 103 % of control
T/C [2]: 103 % of control
T/C [3]: 100 % of control

CCOC(=O)Nc1cc(NCc2ccccc2)c(N)c(N)n1
T/C [8]: 103 % of control
T/C [9]: 103 % of control

N#CC1(NC(=O)N(CCCl)N=O)CCCCC1
T/C (dose: 6.25 mg/kg/injection, schedule: Q01DX001 (ip), vehicle: distilled water + Tween-80): 119 % of control and 108 % of control
T/C (dose: 25.0 mg/kg/injection, schedule: Q01DX001 (ip), vehicle: distilled water + Tween-80): 150 % of control
T/C (dose: 50.0 mg/kg/injection, schedule: Q01DX001 (ip), vehicle: distilled water + Tween-80): 172 % of control and 258 % of control

COC(=O)C(Br)C(OC)c1ccc(C)cc1 (stereo unspecified)
T/C [5]: 94 % of control
T/C (dose: 100.0 mg/kg/injection, schedule: Q04DX003 (ip), vehicle: saline sonified): 95 % of control
T/C [6]: 96 % of control
T/C (dose: 200.0 mg/kg/injection, schedule: Q04DX003 (ip), vehicle: saline sonified): 91 % of control
T/C [10]: 90 % of control
T/C (dose: 400.0 mg/kg/injection, schedule: Q04DX003 (ip), vehicle: saline sonified): 101 % of control

CCc1c(-c2ccccc2)c(CN2CCCCC2)c2ccccn12
T/C (dose: 75.0 mg/kg/injection, schedule: Q01DX001 (ip), vehicle: saline): 103 % of control
T/C (dose: 150.0 mg/kg/injection, schedule: Q01DX001 (ip), vehicle: saline): 103 % of control
T/C (dose: 300.0 mg/kg/injection, schedule: Q01DX001 (ip), vehicle: saline): 113 % of control

C=CCNS(=O)(=O)c1ccc(C)cc1
T/C [5]: 93 % of control
T/C [11]: 98 % of control
T/C [6]: 100 % of control
T/C [7]: 98 % of control
T/C [10]: 90 % of control
T/C [12]: 94 % of control

[Cl][Pt+2][Br].[NH-]CC[NH-]
T/C (dose: 0.47 mg/kg/injection, schedule: Q01DX009 (ip), vehicle: saline with Tween-80): 115 % of control
T/C (dose: 0.95 mg/kg/injection, schedule: Q01DX009 (ip), vehicle: saline with Tween-80): 105 % of control
T/C (dose: 1.9 mg/kg/injection, schedule: Q01DX009 (ip), vehicle: saline with Tween-80): 110 % of control
T/C (dose: 3.8 mg/kg/injection, schedule: Q04DX003 (ip), vehicle: saline with Tween-80): 101 % of control
T/C (dose: 7.5 mg/kg/injection, schedule: Q01DX009 (ip), vehicle: saline with Tween-80): 94 % of control
T/C (dose: 7.5 mg/kg/injection, schedule: Q04DX003 (ip), vehicle: saline with Tween-80): 121 % of control

O=C1c2ccccc2CCC1(Br)C(Br)c1ccccc1 (stereo unspecified)
T/C (dose: 100.0 mg/kg/injection, schedule: Q01DX009 (ip), vehicle: Klucel (hydroxypropylcellulose) (HPC)): 100 % of control
T/C (dose: 200.0 mg/kg/injection, schedule: Q01DX009 (ip), vehicle: Klucel (hydroxypropylcellulose) (HPC)): 100 % of control
T/C (dose: 400.0 mg/kg/injection, schedule: Q01DX009 (ip), vehicle: Klucel (hydroxypropylcellulose) (HPC)): 96 % of control

O=[N+]([O-])c1cc(Cl)c(Cl)cc1Cl
T/C [5]: 92 % of control
T/C [11]: 106 % of control
T/C [6]: 104 % of control
T/C [7]: 101 % of control
T/C [12]: 118 % of control

CC/C(C)=N\O
T/C (dose: 100.0 mg/kg/injection, schedule: Q01DX009 (ip), vehicle: saline): 97 % of control
T/C (dose: 200.0 mg/kg/injection, schedule: Q01DX009 (ip), vehicle: saline): 111 % of control
T/C (dose: 400.0 mg/kg/injection, schedule: Q01DX009 (ip), vehicle: saline): 97 % of control

COc1ccc(C(C)C(O)c2ccccc2)cc1 (stereo unspecified)
T/C (dose: 100.0 mg/kg/injection, schedule: Q04DX003 (ip), vehicle: saline): 103 % of control
T/C (dose: 200.0 mg/kg/injection, schedule: Q04DX003 (ip), vehicle: saline): 108 % of control
T/C (dose: 400.0 mg/kg/injection, schedule: Q04DX003 (ip), vehicle: saline): 102 % of control

O=C(c1ccccc1)C1OC1(CCl)c1ccccc1 (stereo unspecified)
T/C [8]: 106 % of control
T/C [9]: 90 % of control
T/C (dose: 400.0 mg/kg/injection, schedule: Q01DX001 (ip), vehicle: saline with Tween-80): 86 % of control

CN(C)c1nc(N)cc(-c2ccncc2)n1
T/C [1]: 96 % of control
T/C [2]: 88 % of control

Cc1c(N)nc(C(CC(N)=O)NCC(N)C(N)=O)nc1C(=O)NC(C(=O)NC(C)C(O)C(C)C(=O)NC(C(=O)NCCc1nc(-c2nc(C(=O)NCCCNCCCc3ccccn3)cs2)cs1)C(C)O)C(OC1OC(CO)C(O)C(O)C1OC1OC(CO)C(O)C(OC(N)=O)C1O)c1cnc[nH]1 (stereo unspecified)
T/C (dose: 0.2 mg/kg/injection, schedule: Q01DX009 (ip), vehicle: water): 101 % of control
T/C (dose: 0.4 mg/kg/injection, schedule: Q01DX009 (ip), vehicle: water): 107 % of control
T/C (dose: 0.8 mg/kg/injection, schedule: Q01DX009 (ip), vehicle: water): 98 % of control
T/C (dose: 1.6 mg/kg/injection, schedule: Q01DX009 (ip), vehicle: water): 104 % of control
T/C (dose: 3.2 mg/kg/injection, schedule: Q01DX009 (ip), vehicle: water): 104 % of control
T/C (dose: 6.25 mg/kg/injection, schedule: Q01DX009 (ip), vehicle: saline): 111 % of control
T/C (dose: 6.4 mg/kg/injection, schedule: Q01DX009 (ip), vehicle: water): 107 % of control
T/C (dose: 12.5 mg/kg/injection, schedule: Q01DX009 (ip), vehicle: saline): 103 % of control
T/C (dose: 25.0 mg/kg/injection, schedule: Q01DX009 (ip), vehicle: saline): 108 % of control
T/C (dose: 50.0 mg/kg/injection, schedule: Q01DX009 (ip), vehicle: saline): 105 % of control

O=C(CNC(=O)Nc1cccc(C(F)(F)F)c1)N/N=C/c1c(O)ccc2ccccc12
T/C (dose: 12.5 mg/kg/injection, schedule: Q01DX009 (ip), vehicle: saline with Tween-80): 94 % of control
T/C (dose: 25.0 mg/kg/injection, schedule: Q01DX009 (ip), vehicle: saline with Tween-80): 94 % of control
T/C [4]: 94 % of control and 96 % of control
T/C [5]: 100 % of control
T/C [6]: 100 % of control

Cc1ccc(C(=O)c2nnc(C(=O)c3ccc(C)cc3)nn2)cc1
T/C [11]: 92 % of control
T/C [7]: 92 % of control
T/C [12]: 86 % of control

Nc1nc(N)c(-c2ccc(Cl)cc2)c(CNc2cccc([N+](=O)[O-])c2)n1
T/C (dose: 100.0 mg/kg/injection, schedule: Q01DX001 (ip), vehicle: other): 95 % of control
T/C (dose: 200.0 mg/kg/injection, schedule: Q01DX001 (ip), vehicle: other): 94 % of control
T/C (dose: 400.0 mg/kg/injection, schedule: Q01DX001 (ip), vehicle: other): 90 % of control
